Converted amounts (≈) assume the structure as drawn.
Columns and labels:
[1] = tested on: E. faecalis (ATCC 29212) biofilm; assay: Biofilm formation on polystyrene (crystal violet); format: cell-based, Enterococcus faecalis; conditions: 20 hours
Description: E. faecalis (ATCC 29212) was grown overnight in BHI medium, before being diluted 100 fold in fresh TSB, and incubated aerobically at 37° C. until bacteria culture reached an OD600 of 0.6 (corresponding to approximately 2-5×10^8 CFU/ml). Bacteria cultures were then diluted to 1×10^4 CFU/ml in fresh TSB. 800 μl aliquots of diluted bacteria suspensions were distributed in each well of a 24-well plate. Bacteria were allowed to adhere for 4 hours under static conditions at 37° C. After removing media, wells were rinsed 2 times with PBS to eliminate planktonic bacteria and re-filled with TSB supplemented with 0.5% glucose
Triafluocyl or DMSO as vehicle was then added at desired concentration and plates were incubated at 37° C. for 20 hours. After incubation, wells were washed and stained with 0.5% (w/v) crystal violet for 30 minutes, washed again and the dye was solubilized by adding 20% acetic acid (v/v in water) before reading absorbance at 595 nm.
E. faecalis biofilms were formed on polystyrene surface in the presence of increasing concentrations of Triafluocyl or DMSO as vehicle. In FIG. 2, Biofilm mass is presented as percentage of values obtained in the presence of DMSO (*P<0.05; **P<0.01; ***P<0.001, Triafluocyl versus DMSO, n=4).

[2] = tested on: S. epidermidis biofilm; assay: Biofilm formation (crystal violet, 24-well plate); format: cell-based, Staphylococcus epidermidis
Description: To study the effect of Triafluocyl on biofilm formation, S. epidermidis in early logarithmic phase (5×10^8 CFU/ml) was plated in a 24-well plate and let to adhere at the bottom of the well for 4 hr at 37° C. in static conditions. After 4 hr incubation, planktonic bacteria were removed and adherent bacteria were washed twice in TSB. Fresh TSB medium supplemented or not with 0.25% glucose was added to the well with 5 different concentrations of Triafluocyl and incubated for 24 hours. Wells were washed 3 times with NaCl 0.9% and incubated for 1 hr at RT with Crystal Violet 1% solution in dH2O to stain the biofilm. Wells were washed 3 times with dH2O to eliminate unbound crystal violet, then 400 μl Acetic Acid 10% was added and incubated at RT for 10 min. Absorbance was measured in triplicate at 570 nm, reflecting total biomass of the biofilm (live and dead bacteria). The concentration of Triafluocyl that inhibits at least 90% biofilm formation is called minimum biofilm inhibitory concentration (MBIC). Triafluocyl MBIC for S. epidermidis is 50 μg/ml both in the presence and in the absence of glucose.

[3] = tested on: S. epidermidis mature biofilm; assay: Mature biofilm (24-hour) treatment, LIVE/DEAD BacLight staining; format: cell-based, Staphylococcus epidermidis; conditions: 24 hr treatment of 24-hour biofilm
Text: In another experiment we let adhere 0.5×10^8 CFU/ml S. epidermidis cells for 4 hr and let the biofilm form for additional 24 hr in presence of 0.25% glucose, at this point we treated the biofilm with several concentrations of Triafluocyl for 24 hr in TSB with 0.25% glucose and determined the viable count (FIG. 7) as well as the percentage of live cells using the BacLight bacterial viability kit (Molecular Probes).
In the same experiment we also determined the percentage of live and dead bacteria. To do so we followed the procedure of the kit LIVE/DEAD from Molecular Probes. Briefly, the biofilm was resuspended in a solution of 0.9% NaCl and cells were stained with a mixture of SYTO9 (green fluorescence) and propidium iodide (PI) (red fluorescence) for 15 min in the dark. Stained cells were transferred in a 96-well plate and fluorescence was measured using the Enspire Spectrophotometer with excitation wavelength of 470 nm and emission spectra in the range of 490-700 nm. SYTO9 dye (green fluorescence 500-520 nm) penetrates all the cells (dead and live) and binds to DNA, while PI (red fluorescence in the range 610-630 nm) enters only in dead cells with a damaged cell membrane. When PI and SYTO9 are in the same cell the green fluorescence intensity decreases. […]

[4] = tested on: S. epidermidis; assay: Growth of low-density inoculum (OD600, 4 hr); format: cell-based, Staphylococcus epidermidis; conditions: inoculum 0.08×10^6 CFU/ml
Text: Moreover, we have tested the effect of Triafluocyl on a low-density inoculum, 0.08×10^6 CFU/ml, from a culture of S. epidermidis in logarithmic phase.

[5] = tested on: S. agalactiae (ATCC 12386); assay: MIC determination (EUCAST, Mueller-Hinton broth); format: cell-based; conditions: Streptococcus agalactiae, ATCC12386
Description: Further experiments were conducted using S. agalactiae (ATCC 12386), as clinically relevant Gram-positive bacterial strains in order to determine the Minimal Inhibitory Concentration (MIC) which is the minimal concentration required to prevent bacterial growth; the Minimal Bactericidal Concentration (MBC) which determines the lowest concentration at which an antimicrobial agent kill a particular microorganism and a Minimum Duration for killing 99.9% bacteria (MDK99.9) which is a tolerance metric according to the EUCAST.
MIC determination: A single colony selected from the different strains of S. agalactiae (ATCC 12386) is resuspended and cultured in the appropriate medium overnight (O/N) in aerobic conditions (37° C. with 220 rpm shaking), next day a 1:100 inoculum in Mueller-Hinton broth (MHB) was incubated in aerobic conditions for 3 hr (OD=0.08-0.1) and an inoculum of 1:300 dilution, corresponding to 3×10^5 CFU/ml, was incubated in presence or absence of different concentrations of Triafluocyl in 1% DMSO. After O/N growth the OD of each culture was measured at 600 nm in a spectrophotometer (OD600). The MIC represents the concentration at which there is no visible growth of bacteria, i.e. ΔOD at 600 nm equal to zero (blank is the medium alone). MIC for Triafluocyl against S. agalactiae (ATCC 12386) was 40 μg/ml.

MIC [5]: 40 µg/mL (≈ 76.5 µM)
SMILES: CCCSc1nc(N[C@@H]2C[C@H]2c2ccc(F)c(F)c2)c2nnn([C@@H]3C[C@H](OCCO)[C@@H](O)[C@H]3O)c2n1 [Triafluocyl, (1S,2S,3R,5S)-3-[7-[(1R,2S)-2-(3,4-difluorophenyl)cyclopropylamino]-5-(propylthio)-3H-[1,2,3]-triazolo[4,5-d]pyrimidin-3-yl]-5-(2-hydroxyethoxy)-1,2-cyclopentanediol]
E. faecalis biofilm formation ([1]; 40 μg/ml, polystyrene surface): no biofilm could form | E. faecalis biofilm formation ([1]; starting concentration of 10 μg/ml, versus DMSO): significantly reduces | biofilm reduction ([2]; 20 μg/ml, presence of glucose (0.25%), 24 hours): 50% | inhibition at 5 µg/mL ([2]; Staphylococcus epidermidis, 5 μg/ml, absence of glucose, 24 hours): 50% | minimum biofilm inhibitory concentration (MBIC), at least 90% inhibition of biofilm formation ([2]; absence of glucose): 50 µg/mL | minimum biofilm inhibitory concentration (MBIC), at least 90% inhibition of biofilm formation ([2]; presence of glucose): 50 µg/mL | percentage of live bacteria in the biofilm ([3]; 20 μg/ml): 80% | percentage of live bacteria in the biofilm ([3]; 50 μg/ml): 30% | decrease of OD600 compared to growth in absence of Triafluocyl ([4]; 5 μg/ml): 50% | growth (OD600) of low-density inoculum ([4]; 10 μg/ml): inhibited growth | growth (OD600) of low-density inoculum ([4]; 20 μg/ml): inhibited growth
